Experimental findings from patent US11608343B2, “Substituted pyrimido[5,4-d]pyrimidines as HER2 inhibitors” (Boehringer Ingelheim International GmbH, priority 2020, dated 2023) are described below.

Common to all, as to assay type: cell-based
The test system of assay [1] is EGFR WT dependent A431 cells. The experiment in a line: Tumor cell line proliferation assay, EGFR WT dependent A431 cells, CellTiter-Glo. The conditions noted are these: Homo sapiens, A-431, 72 h, read-out: GI50 A431 EGFR wt amp. How it is done: (§1) For proliferation assays, NCI-H2170 (HER2 wild type), NCI-H2170 HER2 YVMA and EGFR WT dependent A431 cells are used. NCI-H2170 HER2 YVMA or NCI-H2170 cells are seeded into 96-well plates at 750 cells/60 μL in growth media (RPMI ATCC+10% FCS, +Penicillin/Streptomycin). […] Compounds are added by using a HP D3000 Digital Dispenser one day after plating the cells. All treatments are performed in technical triplicates. Treated cells are incubated for 72 h at 37° C. with 5% CO2. CellTiter-Glo® Luminescent Cell Viability Assay (Promega) is performed and chemoluminescence is measured by using the multilabel Plate Reader VICTOR X4. The raw data are imported into and analyzed with the Boehringer Ingelheim proprietary software MegaLab (curve fitting based on the program PRISM, GraphPad Inc.).
Background: ATP-based viability assays read luminescence as a measure of living cells.

The next assay deals with T1, EGFR wild type (WT) (Homo sapiens, UniProt P00533).
T1 construct: expressed in transfected cells; host or cells: human HEK cells (ATCC CRL-1573), retroviral transduction
T1 sequence (P00533 25-1210): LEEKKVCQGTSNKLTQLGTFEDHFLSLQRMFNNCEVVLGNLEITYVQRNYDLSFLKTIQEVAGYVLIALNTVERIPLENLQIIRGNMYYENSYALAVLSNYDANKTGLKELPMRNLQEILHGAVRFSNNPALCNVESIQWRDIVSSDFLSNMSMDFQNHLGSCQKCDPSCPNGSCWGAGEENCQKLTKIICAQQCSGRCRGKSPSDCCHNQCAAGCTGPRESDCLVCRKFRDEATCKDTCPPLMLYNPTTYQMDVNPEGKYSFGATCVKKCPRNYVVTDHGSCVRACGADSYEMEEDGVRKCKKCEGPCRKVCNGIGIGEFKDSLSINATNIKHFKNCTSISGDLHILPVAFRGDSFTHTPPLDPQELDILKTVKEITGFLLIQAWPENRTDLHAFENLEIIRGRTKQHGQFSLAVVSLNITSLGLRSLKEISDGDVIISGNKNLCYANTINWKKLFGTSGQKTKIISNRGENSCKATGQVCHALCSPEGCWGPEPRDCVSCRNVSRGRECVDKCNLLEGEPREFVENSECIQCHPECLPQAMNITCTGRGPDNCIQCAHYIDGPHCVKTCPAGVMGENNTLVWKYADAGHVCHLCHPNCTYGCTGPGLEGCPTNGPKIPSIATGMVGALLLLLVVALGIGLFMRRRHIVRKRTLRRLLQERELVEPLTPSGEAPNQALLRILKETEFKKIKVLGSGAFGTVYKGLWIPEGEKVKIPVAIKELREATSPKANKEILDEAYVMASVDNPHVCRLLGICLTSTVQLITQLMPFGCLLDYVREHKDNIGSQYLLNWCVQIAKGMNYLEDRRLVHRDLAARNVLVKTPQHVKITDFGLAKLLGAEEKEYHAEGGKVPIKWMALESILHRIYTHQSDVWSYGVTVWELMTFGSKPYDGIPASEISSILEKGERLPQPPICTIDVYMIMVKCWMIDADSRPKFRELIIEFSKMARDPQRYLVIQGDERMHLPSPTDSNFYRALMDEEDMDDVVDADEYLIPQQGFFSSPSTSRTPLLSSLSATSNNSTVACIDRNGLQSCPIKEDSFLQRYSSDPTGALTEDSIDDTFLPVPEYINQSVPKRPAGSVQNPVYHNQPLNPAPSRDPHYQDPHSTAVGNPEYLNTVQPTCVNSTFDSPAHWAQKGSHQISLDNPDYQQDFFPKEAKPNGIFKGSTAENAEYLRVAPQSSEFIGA
The experiment in a line: pEGFR assay: phosphorylation of EGFR at Tyr1068 in HEK cells expressing EGFR WT (AlphaScreen Surefire). The note with it: 4 h with compound. How it is done:
This assay quantifies the phosphorylation of EGFR at Tyr1068 and is used to measure the inhibitory effect of compounds on the transgenic EGFR wild type (WT) protein expressed in HEK cells.
(§2) Transduced cells are selected using puromycin. p-EGFR Tyr1068 is determined using the AlphaScreen Surefire pEGF Receptor (Tyr1068) Assay (PerkinElmer, TGRERS). For the assay, HEK EGFR WT cells are seeded in MEM medium with 10% FBS. […] Subsequently, 60.000 cells/well in 60 μL are added. Cells are incubated with compound for 4 h at 37° C. […] The mixture is incubated at a temperature of 20-25° C. with shaking (700 rpm) for 20 min. After centrifugation, 4 μL of the lysate are transferred to Proxiplates. […] Plates are shaken for 1 min (1400 rpm) and incubated for 2 h at a temperature of (20-25° C.) in the dark. […] Plates are shaken for 1 min (1400 rpm) and incubated for 2 h at a temperature of (20-25° C.) in the dark. Plates are subsequently analyzed using an Envision reader platform. […] IC50 values are computed from these values in the MEGASTAR IC50 application using a 4 parametric logistic model.
This cellular phospho-EGFR (pEGFR) compound dose-response assay quantifies the phosphorylation of EGFR at Tyr1068 in HEK cells expressing EGFR WT. The results of the assay are provided as IC50 values.
A general note: Alpha assays give light when donor and acceptor beads are brought close together.

The subject of assay [2] is Ba/F3 cells expressing EGFR WT. The experiment in a line: Ba/F3 proliferation assay, EGFR WT (EGF dependent), CellTiter-Glo. The conditions noted are these: Mus musculus, BaF3, EGF instead of IL-3, 72 h, read-out: GI50 BAF3 EGF dep. The method, then:
(§3) Ba/F3 Cell Model Generation and Proliferation Assays
(§4) Plasmids containing HER2 mutants and EGFR WT were obtained from GeneScript. To generate EGFR/HER2-dependent Ba/F3 models, Ba/F3 cells are transduced with retroviruses containing vectors that harbor EGFR WT, HER2 WT or HER2 mutants (YVMA). Platinum-E cells (Cell Biolabs) are used for retrovirus packaging. Retrovirus is added to Ba/F3 cells. To ensure infection, 4 μg/mL polybrene is added and cells are spin-infected. Infection efficiency is confirmed by measuring GFP-positive cells using a cell analyzer. Cells with an infection efficiency of 10% to 20% are further cultivated and puromycin selection with 1 μg/mL is initiated. As a control, parental Ba/F3 cells are used to assess the selection status. Selection is considered successful when parental Ba/F3 cells cultures die. To evaluate the transforming potential of HER2 mutations, the growth medium is no longer supplemented with IL-3. Ba/F3 cells harboring the empty vector are used as a control. A switch from IL-3 to EGF is performed for Ba/F3 cells expressing EGFR WT known for its dependency on EGF ligand. Approximately ten days before conducting the experiments, puromycin is left out. For proliferation assays (data in tables 10 and 12), Ba/F3 cells are seeded into 96-well plates at 5×10^3 cells/100 μL in growth media. Compounds are added by using a HP D3000 Digital Dispenser. All treatments are performed in technical triplicates. Treated cells are incubated for 72 h at 37° C. with 5% CO2. A CellTiter-Glo® Luminescent Cell Viability Assay (Promega) is performed and chemoluminescence is measured by using the multilabel Plate Reader VICTOR X4. The raw data are imported into and analyzed with the Boehringer Ingelheim proprietary software MegaLab (curve fitting based on the program PRISM, GraphPad Inc.).

Assay [3] concerns NCI-H2170 HER2 YVMA cells. As to the kind of experiment: Tumor cell line proliferation assay, NCI-H2170 HER2 YVMA, CellTiter-Glo. The conditions noted are these: Homo sapiens, 72 h, read-out: GI50 NCI H-2170 HER2 YVMA.
Source text: HER2 YVMA Tumor Cell Line Model Generation and Proliferation Assays
Homology-directed genome engineering is employed to insert a 12 nucleotide sequence encoding YVMA into Exon 20 of the genomic HER2 locus in NCI-H2170 cells. […] The DNA template containing the HER2 exon 20 YVMA insertion variant was obtained from GenScript. PCR followed by Sanger sequencing is used to confirm the presence of the 12-nucleotide insertion in HER2 Exon 20 resulting in the YVMA amino acid duplication.
as §1

Assay [4] deals with NCI-H2170 (HER2 wild type) cells. As to the kind of experiment: Tumor cell line proliferation assay, NCI-H2170 (HER2 wild type), CellTiter-Glo. The note with it: Homo sapiens, 72 h, read-out: GI50 NCI H-2170 HER2 wt amp. The method, then: as §1
For assay [5], the system named is Ba/F3 cells HER2 mutants (YVMA). As to the kind of experiment: Ba/F3 proliferation assay, HER2 YVMA, CellTiter-Glo. The note with it: Mus musculus, BaF3, 72 h. How it is done: as §3, §4
In a further assay the target is T2, HER2 YVMA (Homo sapiens, UniProt P04626, INS775YVMA).
T2 construct: expressed in transfected cells; host or cells: human HEK cells, retroviral transduction, doxycycline-inducible expression
T2 sequence (P04626 with tags, fused parts or gaps INS775YVMA): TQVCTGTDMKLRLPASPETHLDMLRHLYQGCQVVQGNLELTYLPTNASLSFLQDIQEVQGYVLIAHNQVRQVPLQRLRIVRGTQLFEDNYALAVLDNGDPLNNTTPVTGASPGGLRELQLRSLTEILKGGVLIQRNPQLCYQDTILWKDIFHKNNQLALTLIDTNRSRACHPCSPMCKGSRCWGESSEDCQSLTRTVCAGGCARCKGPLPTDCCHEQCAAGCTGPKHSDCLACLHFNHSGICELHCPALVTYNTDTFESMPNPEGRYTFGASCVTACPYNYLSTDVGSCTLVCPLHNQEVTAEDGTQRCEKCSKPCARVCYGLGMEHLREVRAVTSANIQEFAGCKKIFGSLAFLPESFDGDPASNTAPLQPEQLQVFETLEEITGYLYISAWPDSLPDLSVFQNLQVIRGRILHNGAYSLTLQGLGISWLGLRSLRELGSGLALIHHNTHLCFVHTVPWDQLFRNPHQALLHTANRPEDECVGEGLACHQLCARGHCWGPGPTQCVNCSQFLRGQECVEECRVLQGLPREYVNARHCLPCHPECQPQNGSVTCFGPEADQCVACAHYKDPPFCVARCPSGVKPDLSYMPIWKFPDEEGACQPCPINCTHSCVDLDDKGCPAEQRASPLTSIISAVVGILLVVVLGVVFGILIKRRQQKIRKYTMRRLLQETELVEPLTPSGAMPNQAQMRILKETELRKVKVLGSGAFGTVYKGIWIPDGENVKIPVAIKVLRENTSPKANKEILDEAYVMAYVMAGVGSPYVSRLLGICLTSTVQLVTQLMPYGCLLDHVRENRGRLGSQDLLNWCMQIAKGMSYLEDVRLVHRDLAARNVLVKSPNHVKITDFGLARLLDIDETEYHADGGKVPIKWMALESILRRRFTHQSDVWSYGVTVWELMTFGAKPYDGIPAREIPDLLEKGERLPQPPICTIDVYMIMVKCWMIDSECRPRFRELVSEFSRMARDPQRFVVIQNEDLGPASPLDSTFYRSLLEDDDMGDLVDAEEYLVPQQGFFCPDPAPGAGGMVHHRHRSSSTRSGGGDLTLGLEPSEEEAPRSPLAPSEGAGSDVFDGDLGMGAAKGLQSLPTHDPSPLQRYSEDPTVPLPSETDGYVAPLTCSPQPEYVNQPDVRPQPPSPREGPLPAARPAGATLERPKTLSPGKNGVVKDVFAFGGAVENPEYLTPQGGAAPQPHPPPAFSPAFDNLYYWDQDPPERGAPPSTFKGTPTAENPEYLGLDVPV
As to the kind of experiment: pHER2 (ERBB2) YVMA assay: phosphorylation of HER2 YVMA at Tyr1221/1222 in HEK cells (AlphaScreen Surefire). The conditions noted are these: doxycycline induced, 4 h with compound. How it is done: as §2, with “For” for “Transduced cells are selected using puromycin. p-EGFR Tyr1068 is determined using the AlphaScreen Surefire pEGF Receptor (Tyr1068) Assay (PerkinElmer, TGRERS). For”, “HER2 YVMA” for “EGFR WT”, “FBS. 4 hours prior to compound addition, HER2 YVMA expression is induced using 1 μg/mL Doxycycline.” for “FBS.”, “20-25° C.” for “(20-25° C.)”, “model. […] The results of the assay are provided as IC50 values.” for “model.”

In a further assay the test system is Ba/F3 cells HER2 WT. As to the kind of experiment: Ba/F3 proliferation assay, HER2 WT, CellTiter-Glo. The note with it: Mus musculus, BaF3, 72 h. The method, then:
as §3, §4

By GI50 is commonly meant the concentration at which growth is held to half of that of the control. For orientation: IC50 means the point on the concentration scale where inhibition reaches its midpoint.

Take `C=CC(=O)Nc1ccc2ncnc(Nc3ccc(OCc4cccc(F)c4)c(Cl)c3)c2c1` [Allitinib, reference compound]: the GI50 was determined as 403 nM in assay [1]; 31 nM in assay [2]; 203 nM in assay [3]; 36 nM in assay [4]; 17 nM in assay [5]. The IC50 at EGFR wild type (WT) is 1 nM; on HER2 YVMA it was 3 nM.
As to `C=CC(=O)NC1CCN(c2ncc3ncnc(Nc4ccc(Oc5ccc6c(c5)ncn6C)c(C)c4)c3n2)CC1` [Example I-01], the GI50 in assay [1] is over 5000 nM; with Ba/F3 cells HER2 WT it was 1 nM; in assay [2] it was 1540 nM; in assay [3], 33 nM; in assay [4] it was 6 nM; in assay [5], 16 nM. The IC50 on HER2 YVMA stood at 13 nM.
Consider `C#Cc1cc(Nc2ncnc3cnc(N4CCC(NC(=O)C=C)CC4)nc23)ccc1Oc1ccc2c(c1)ncn2C` [Example I-02], for which the GI50 in assay [1] is over 5000 nM; with Ba/F3 cells HER2 WT, 1 nM; in assay [2], 3010 nM; in assay [3], 228 nM; in assay [4], 13 nM; in assay [5], 37 nM. Also, the IC50 at EGFR wild type (WT) came to 628 nM; on HER2 YVMA, 34 nM.
For `C=CC(=O)NC1CCN(c2ncc3ncnc(Nc4ccc(Oc5ccc6c(c5)ncn6C)c(OC)c4)c3n2)CC1` [Example I-03], the GI50 was over 5000 nM in assay [1]; 2 nM in the assay with Ba/F3 cells HER2 WT; over 5000 nM in assay [2]; 139 nM in assay [3]; 11 nM in assay [4]; 38 nM in assay [5]. Moreover, the concentration for half-maximal inhibition (IC50) was determined as 916 nM at EGFR wild type (WT) and 20 nM on HER2 YVMA.
As to `C=CC(=O)NC1(C)CCN(c2ncc3ncnc(Nc4ccc(Oc5ccc6c(c5)ncn6C)c(OC)c4)c3n2)CC1` [Example I-04], the GI50 in assay [1] was over 5000 nM; in the assay on Ba/F3 cells HER2 WT, 3 nM; in assay [2], over 5000 nM; in assay [3], 99 nM; in assay [4] it was 12 nM; in assay [5], 32 nM. For the same compound, the IC50 on EGFR wild type (WT) turned out to be 495 nM; on HER2 YVMA it was 26 nM.
As to `C=CC(=O)NC1CCN(c2ncc3ncnc(Nc4ccc(Oc5ccc6c(c5)ncn6C)c(Cl)c4)c3n2)CC1` [Example I-05], the GI50 in assay [1] is over 5000 nM; in the assay with Ba/F3 cells HER2 WT, 1 nM; in assay [2], 1880 nM; in assay [3] it was 55 nM; in assay [4], 8 nM; in assay [5] it was 21 nM. The IC50 on EGFR wild type (WT) turned out to be 315 nM; on HER2 YVMA, 10 nM.
For the compound `C=CC(=O)NC1CCN(c2ncc3ncnc(Nc4cc(F)c(Oc5ccn6ncnc6c5)c(Cl)c4)c3n2)CC1` [Example I-06], the GI50 in assay [1] was over 5000 nM; in the assay with Ba/F3 cells HER2 WT, 1 nM; in assay [2], over 5000 nM; in assay [3], 215 nM; in assay [4], 12 nM; in assay [5] it was 31 nM. For the same compound, the results for the IC50 on EGFR wild type (WT) and at HER2 YVMA were 773 nM and 44 nM, respectively.
Turning to `C=CC(=O)NC1CN(c2ncc3ncnc(Nc4ccc(Oc5ccc6c(c5)ncn6C)c(C)c4)c3n2)C1` [Example I-07], the 50% growth inhibitory concentration (GI50) was over 5000 nM in assay [1]; 3 nM in the assay on Ba/F3 cells HER2 WT; 1500 nM in assay [2]; 73 nM in assay [3]; 17 nM in assay [4]; 42 nM in assay [5]. Also, the IC50 at EGFR wild type (WT) amounted to 1170 nM; on HER2 YVMA it was 20 nM.
Consider `C=CC(=O)N1CC[C@@H](Nc2ncc3ncnc(Nc4ccc(Oc5ccn6ncnc6c5)c(C)c4)c3n2)C1` [Example I-18], for which the GI50 is over 2000 nM in assay [1]; 3270 nM in assay [2]; 87 nM in assay [3]; 10 nM in assay [4]; 29 nM in assay [5]. For the same compound, the IC50 came to 137 nM at EGFR wild type (WT) and 4 nM at HER2 YVMA.
For `C=CC(=O)N1CCC[C@@H](n2nc(-c3ccc(Oc4ccccc4)cc3)c3c(N)ncnc32)C1` [Ibrutinib, reference compound], the GI50 in assay [1] stood at 199 nM; in assay [2], 70 nM; in assay [3], 132 nM; in assay [4], 16 nM; in assay [5], 44 nM.
The like results for `CCOc1cc2ncc(C#N)c(Nc3ccc(OCc4ccccn4)c(Cl)c3)c2cc1NC(=O)/C=C/CN(C)C` [Neratinib, reference compound] were, in that order, 55 nM, 14 nM, 37 nM, 3 nM and 5 nM.
Regarding `C=CC(=O)N1CCC(Oc2cc3c(Nc4ccc(Cl)c(Cl)c4F)ncnc3cc2OC)CC1` [Poziotinib, reference compound], the GI50 turned out to be 1 nM in assay [1]; 1 nM in the assay with Ba/F3 cells HER2 WT; 1 nM in assay [2]; 5 nM in assay [3]; 1 nM in assay [4]; 2 nM in assay [5]. In addition, at HER2 YVMA, the IC50 is 5 nM.
As for `C=CC(=O)Nc1ccc2ncnc(Nc3ccc(Oc4ccc5c(c4)ncn5C)c(C)c3)c2c1` [WO 2007/059257 Ex. 185, reference compound], the GI50 in assay [1] was over 5000 nM; in assay [2], 1190 nM; in assay [3], 926 nM; in assay [4], 108 nM; in assay [5], 60 nM. Moreover, the IC50 at EGFR wild type (WT) was found to be 317 nM; on HER2 YVMA it was 33 nM.
